These results are taken from patent US20240279241A1, “PYRIDO[4,3-D]PYRIMIDINE COMPOUNDS CAPABLE OF INHIBITING KRAS MUTANT PROTEINS” (Redx Pharma PLC, priority 2021, published 2024).

Like-named read-outs stand apart in the source and are kept apart here. Some results are limits rather than exact numbers.

In experiment [1] the target is T1, KRAS G12D (Homo sapiens, UniProt P01116, G12D).
T1 construct: Recombinant human RAS protein (2 nM)
Put plainly: HTRF nucleotide exchange assay (NEA), KRAS G12D. The class given is biochemical. The settings on record: recombinant human KRAS G12D aa1-188, 2 nM; lowest class = % inhibition at 10 μM. On the procedure:
(§1) The capacity of compounds to bind KRAS G12D, other KRAS mutants and wildtype RAS isoforms was quantified using a HTRF nucleotide exchange assay. Recombinant human RAS protein (2 nM; aa1-188 KRAS WT, HRAS WT, NRAS WT, or KRAS containing the containing the G12D, G13D or Q61H amino acid substitutions, or 4 nM KRAS; aa1-188 containing the G12V, G12C, G12A or G12S amino acid substitution, an N-terminal 6×His-tag and leader sequence), and 2 nM Europium-labeled anti-6×His antibody were mixed in assay buffer (10 mM HEPES pH7.3, 150 mM NaCl, 5 mM MgCl2, 0.05% BSA, 0.0025% NP-40 and 100 mM KF) with various concentrations of compound in a 384-well plate and a volume of 5 uL. After a 60-minute incubation at room temperature, 5 ul of 200 nM EDA-GTP-DY647P1 (diluted in assay buffer) was added to the plate. Following 30-minute incubation at room temperature, time-resolved fluorescence was measured on a PerkinElmer Envision plate reader. DMSO (0.3%) and unlabeled […] (1 μM) or equivalent tool compound were used to generate the Max and Min assay signals, respectively. Data was analysed using a four-parameter logistic model to calculate IC50 values, with at least two independent replicates were performed for each compound.

The target in experiment [2] is T2, KRAS WT (Homo sapiens, UniProt P01116).
T2 construct: Recombinant human RAS protein (2 nM); aa1-188 KRAS WT
Briefly: HTRF nucleotide exchange assay (NEA), KRAS WT. The class given is biochemical. On the procedure:
as §1
(In general: Time-resolved FRET reads energy transfer from a long-lived donor to a nearby acceptor.)

T1 sequence (P01116 1-188 isoform P01116-2 G12D): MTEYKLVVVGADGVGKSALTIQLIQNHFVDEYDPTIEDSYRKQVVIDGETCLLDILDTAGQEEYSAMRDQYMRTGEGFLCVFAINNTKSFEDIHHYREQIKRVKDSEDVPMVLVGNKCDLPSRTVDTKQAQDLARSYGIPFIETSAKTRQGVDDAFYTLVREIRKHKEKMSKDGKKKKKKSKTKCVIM
T2 sequence (P01116 1-188 isoform P01116-2): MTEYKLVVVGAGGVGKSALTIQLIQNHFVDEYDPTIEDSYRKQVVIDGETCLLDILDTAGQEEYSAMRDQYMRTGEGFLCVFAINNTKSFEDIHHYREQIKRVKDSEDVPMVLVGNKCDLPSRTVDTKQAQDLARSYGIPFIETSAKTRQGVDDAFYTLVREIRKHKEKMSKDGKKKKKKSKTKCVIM

The IC50 is the concentration that inhibits the measured activity by half. As for `C#Cc1c(F)ccc2cc(O)cc(-c3ncc4c(N5CCNC(=O)CC5)nc(OC[C@@]56CCCN5C[C@H](F)C6)nc4c3F)c12` (relative stereo) [Example 87, 1-[7-(8-ethynyl-7-fluoro-3-hydroxy-1-naphthyl)-8-fluoro-2-[[trans-2-fluoro-1,2,3,5,6,7-hexahydropyrrolizin-8-yl]methoxy]pyrido [4,3-d]pyrimidin-4-yl]-1,4-diazepan-5-one], the IC50 in experiment [1] and in experiment [2] was not above 10 nM in each case.
In the case of `Nc1nc2c(-c3ncc4c(N5CCCOCC5)nc(OC[C@@]56CCCN5C[C@H](F)C6)nc4c3F)cccc2s1` (relative stereo) [Example 94, 4-[8-fluoro-4-(1,4-oxazepan-4-yl)-2-[[trans-2-fluoro-1,2,3,5,6,7-hexahydropyrrolizin-8-yl]methoxy]pyrido[4,3-d]pyrimidin-7-yl]-1,3-benzothiazol-2-amine], the IC50 in experiment [1] and in experiment [2] was 100 to 10000 nM each time.
As to `COCCNc1nc(OCC23CCCN2CCC3)nc2c(F)c(-c3cc(O)cc4ccccc34)ncc12` [Example 12], the IC50 in experiment [1] and in experiment [2] was 100 to 10000 nM each time.
For the compound `Oc1cc(-c2ncc3c(NC4CCOCC4)nc(OCC45CCCN4CCC5)nc3c2F)c2ccccc2c1` [Example 15, 4-[8-fluoro-2-(1,2,3,5,6,7-hexahydropyrrolizin-8-ylmethoxy)-4-(tetrahydropyran-4-ylamino)pyrido[4,3-d]pyrimidin-7-yl]naphthalen-2-ol], the IC50 in experiment [1] and in experiment [2] was 100 to 10000 nM throughout.
`COC1CCN(c2nc(OCC34CCCN3CCC4)nc3c(F)c(-c4cc(O)cc5ccccc45)ncc23)CC1` [Example 21, 4-[8-fluoro-2-(1,2,3,5,6,7-hexahydropyrrolizin-8-ylmethoxy)-4-(4-methoxy-1-piperidyl)pyrido[4,3-d]pyrimidin-7-yl]naphthalen-2-ol]: the IC50 in experiment [1] and in experiment [2] was 100 to 10000 nM throughout.
As for `CN(c1nc(OCC23CCCN2CCC3)nc2c(F)c(-c3cc(O)cc4ccccc34)ncc12)C1CCOCC1` [Example 23, 4-[8-fluoro-2-(1,2,3,5,6,7-hexahydropyrrolizin-8-ylmethoxy)-4-[methyl(tetrahydro-pyran-4-yl)amino]pyrido[4,3-d]pyrimidin-7-yl]naphthalen-2-ol], the IC50 in experiment [1] and in experiment [2] was 100 to 10000 nM each time.
As for `COCCCNc1nc(OCC23CCCN2CCC3)nc2c(F)c(-c3cc(O)cc4ccccc34)ncc12` [Example 29, 4-[8-fluoro-2-(1,2,3,5,6,7-hexahydropyrrolizin-8-ylmethoxy)-4-(3-methoxypropylamino)pyrido[4,3-d]pyrimidin-7-yl]naphthalen-2-ol], the IC50 was 100 to 10000 nM in experiment [1] and 100 to 10000 nM in experiment [2] (recombinant human KRAS WT aa1-188, 2 nM, lowest class = % inhibition at 10 μM).
As to `CC(C)OCCCNc1nc(OCC23CCCN2CCC3)nc2c(F)c(-c3cc(O)cc4ccccc34)ncc12` [Example 30, 4-[8-fluoro-2-(1,2,3,5,6,7-hexahydropyrrolizin-8-ylmethoxy)-4-(3-isopropoxypropyl-amino)pyrido[4,3-d]pyrimidin-7-yl]naphthalen-2-ol], the IC50 in experiment [1] and in experiment [2] was 100 to 10000 nM in each case.
For `Oc1cc(-c2ncc3c(NC4CCCCC4)nc(OCC45CCCN4CCC5)nc3c2F)c2ccccc2c1` [Example 35, 4-[4-(cyclohexylamino)-8-fluoro-2-(1,2,3,5,6,7-hexahydropyrrolizin-8-ylmethoxy)pyrido [4,3-d]pyrimidin-7-yl]naphthalen-2-ol], the IC50 in experiment [1] and in experiment [2] was 100 to 10000 nM each time.
On to `Oc1cc(-c2ncc3c(N4CC5COCC5C4)nc(OCC45CCCN4CCC5)nc3c2F)c2ccccc2c1` (centres unmarked) [Example 37, 4-[4-(1,3,3a,4,6,6a-hexahydrofuro[3,4-c]pyrrol-5-yl)-8-fluoro-2-(1,2,3,5,6,7-hexahydropyrrolizin-8-ylmethoxy)pyrido [4,3-d]pyrimidin-7-yl]naphthalen-2-ol], for which the IC50 in experiment [1] and in experiment [2] was 100 to 10000 nM each time.
In the case of `OCCCNc1nc(OCC23CCCN2CCC3)nc2c(F)c(-c3cc(O)cc4ccccc34)ncc12` [Example 39, 4-[8-fluoro-2-(1,2,3,5,6,7-hexahydropyrrolizin-8-ylmethoxy)-4-(3-hydroxypropylamino)pyrido[4,3-d]pyrimidin-7-yl]naphthalen-2-ol], the IC50 in experiment [1] and in experiment [2] was 100 to 10000 nM in each case.
Take `CN(C)C(=O)CCNc1nc(OCC23CCCN2CCC3)nc2c(F)c(-c3cc(O)cc4ccccc34)ncc12` [Example 40, 3-[[8-fluoro-2-(1,2,3,5,6,7-hexahydropyrrolizin-8-ylmethoxy)-7-(3-hydroxy-1-naphthyl)pyrido[4,3-d]pyrimidin-4-yl]amino]-N,N-dimethyl-propanamide]: the half-inhibitory concentration (IC50) in experiment [1] and in experiment [2] was 100 to 10000 nM each time.
Consider `COC1CCCN(c2nc(OCC34CCCN3CCC4)nc3c(F)c(-c4cc(O)cc5ccccc45)ncc23)C1` (centres unmarked) [Example 42, 4-[8-fluoro-2-(1,2,3,5,6,7-hexahydropyrrolizin-8-ylmethoxy)-4-(3-methoxy-1-piperidyl)pyrido[4,3-d]pyrimidin-7-yl]naphthalen-2-ol], for which the IC50 in experiment [1] and in experiment [2] was 100 to 10000 nM in each case.
Consider `COCC(C)(C)CNc1nc(OCC23CCCN2CCC3)nc2c(F)c(-c3cc(O)cc4ccccc34)ncc12` [Example 43, 4-[8-fluoro-2-(1,2,3,5,6,7-hexahydropyrrolizin-8-ylmethoxy)-4-[(3-methoxy-2,2-dimethyl-propyl)amino]pyrido [4,3-d]pyrimidin-7-yl]naphthalen-2-ol], for which the IC50 in experiment [1] and in experiment [2] was 100 to 10000 nM throughout.
As to `COCCC(C)Nc1nc(OCC23CCCN2CCC3)nc2c(F)c(-c3cc(O)cc4ccccc34)ncc12` (centres unmarked) [Example 44, 4-[8-fluoro-2-(1,2,3,5,6,7-hexahydropyrrolizin-8-ylmethoxy)-4-[(3-methoxy-1-methyl-propyl)amino]pyrido [4,3-d]pyrimidin-7-yl]naphthalen-2-ol], the IC50 in experiment [1] and in experiment [2] was 100 to 10000 nM each time.
On to `Oc1cc(-c2ncc3c(N4CCC5(CCOC5)C4)nc(OCC45CCCN4CCC5)nc3c2F)c2ccccc2c1` (centres unmarked) [Example 48, 4-[8-fluoro-2-(1,2,3,5,6,7-hexahydropyrrolizin-8-ylmethoxy)-4-(2-oxa-7-azaspiro[4.4]nonan-7-yl)pyrido [4,3-d]pyrimidin-7-yl]naphthalen-2-ol], for which the IC50 in experiment [1] and in experiment [2] was 100 to 10000 nM throughout.
Regarding `Oc1cc(-c2ncc3c(N4CC5COCC(C5)C4)nc(OCC45CCCN4CCC5)nc3c2F)c2ccccc2c1` [Example 49, 4-[8-fluoro-2-(1,2,3,5,6,7-hexahydropyrrolizin-8-ylmethoxy)-4-(3-oxa-7-azabicyclo[3.3.1]nonan-7-yl)pyrido[4,3-d]pyrimidin-7-yl]naphthalen-2-ol], the IC50 in experiment [1] and in experiment [2] was 100 to 10000 nM in each case.
For `Oc1cc(-c2ncc3c(N4CC5(CCCOC5)C4)nc(OCC45CCCN4CCC5)nc3c2F)c2ccccc2c1` [Example 53, 4-[8-fluoro-2-(1,2,3,5,6,7-hexahydropyrrolizin-8-ylmethoxy)-4-(6-oxa-2-azaspiro[3.5]nonan-2-yl)pyrido[4,3-d]pyrimidin-7-yl]naphthalen-2-ol], the IC50 in experiment [1] and in experiment [2] was 100 to 10000 nM each time.
As to `COC(C)(C)CCNc1nc(OCC23CCCN2CCC3)nc2c(F)c(-c3cc(O)cc4ccccc34)ncc12` [Example 54, 4-[8-fluoro-2-(1,2,3,5,6,7-hexahydropyrrolizin-8-ylmethoxy)-4-[(3-methoxy-3-methyl-butyl)amino]pyrido [4,3-d]pyrimidin-7-yl]naphthalen-2-ol], the IC50 in experiment [1] and in experiment [2] was 100 to 10000 nM each time.
Turning to `Oc1cc(-c2ncc3c(N4CCn5nccc5C4)nc(OCC45CCCN4CCC5)nc3c2F)c2ccccc2c1` [Example 57, 4-[4-(6,7-dihydro-4H-pyrazolo[1,5-a]pyrazin-5-yl)-8-fluoro-2-(1,2,3,5,6,7-hexahydropyrrolizin-8-ylmethoxy)pyrido [4,3-d]pyrimidin-7-yl]naphthalen-2-ol], the IC50 in experiment [1] and in experiment [2] was 100 to 10000 nM each time.
With `Oc1cc(-c2ncc3c(N4CCn5cncc5C4)nc(OCC45CCCN4CCC5)nc3c2F)c2ccccc2c1` [Example 58, 4-[4-(6,8-dihydro-5H-imidazo[1,5-a]pyrazin-7-yl)-8-fluoro-2-(1,2,3,5,6,7-hexahydropyrrolizin-8-ylmethoxy)pyrido [4,3-d]pyrimidin-7-yl]naphthalen-2-ol], the IC50 in experiment [1] and in experiment [2] was 100 to 10000 nM each time.
Take `Oc1cc(-c2ncc3c(N4CCn5ccnc5C4)nc(OCC45CCCN4CCC5)nc3c2F)c2ccccc2c1` [Example 60, 4-[4-(6,8-dihydro-5H-imidazo[1,2-a]pyrazin-7-yl)-8-fluoro-2-(1,2,3,5,6,7-hexahydropyrrolizin-8-ylmethoxy)pyrido [4,3-d]pyrimidin-7-yl]naphthalen-2-ol]: the IC50 in experiment [1] and in experiment [2] was 100 to 10000 nM throughout.
